For one test, the target named is T1, human 5-HT7 receptor (Homo sapiens, UniProt P34969).
T1 construct: expressed in transfected cells; host or cells: HEK293
Description: Competition radioligand binding at human 5-HT7 receptor ([3H]-SB269970). Conditions: mean ± SEM of 2 independent experiments, read-out: hu5-HT7 % inh. at 10 µM. The procedure: (§1) Competition radioligand binding assays were performed on membranes isolated from cell lines stably expressing the cloned human receptors, which were either in-house or commercially available. […] Assays (250 μL assay final volume) were carried out in 96-well polypropylene plates in duplicate. In short, the suspension of appropriate membrane protein was incubated in an assay buffer with the addition of the corresponding radioligand, in the presence or absence of a tested compound or reference compound. […] After the incubation, the content of the test plates was transferred to 96 well plates with glass fiber filter GF/B or GF/C, previously pretreated with polyethyleneimine (PEI), and rapidly filtered with the use of vacuum, followed by rapid washing with cold (4 °C) wash buffer. After that, the filter plates were dried at 60 °C for 1 h. Then, 30 μL of liquid scintillation cocktail (UniverSol-ES, MP Biomedicals, Solon, OH, USA) was added to each well of the filter plates, and the radioactivity was measured in a MicroBeta^2 microplate scintillation counter (PerkinElmer, Madrid, Spain).
(§2) Competition binding curves were fitted to a one-site competition binding model (Fit Ki) with the use of Prism 7 software (GraphPad, San Diego, CA, USA). logKi (log of the equilibrium dissociation constant (Ki)) values were obtained after constraining the concentration of radioligand employed in the assay and its dissociation constant (KD) as determined in saturation radioligand binding assays.

For test [1], the target named is T2, human dopamine D1 receptor (Homo sapiens, UniProt P21728).
T2 construct: expressed in transfected cells; host or cells: CHO-K1
T2 sequence (P21728 whole entry): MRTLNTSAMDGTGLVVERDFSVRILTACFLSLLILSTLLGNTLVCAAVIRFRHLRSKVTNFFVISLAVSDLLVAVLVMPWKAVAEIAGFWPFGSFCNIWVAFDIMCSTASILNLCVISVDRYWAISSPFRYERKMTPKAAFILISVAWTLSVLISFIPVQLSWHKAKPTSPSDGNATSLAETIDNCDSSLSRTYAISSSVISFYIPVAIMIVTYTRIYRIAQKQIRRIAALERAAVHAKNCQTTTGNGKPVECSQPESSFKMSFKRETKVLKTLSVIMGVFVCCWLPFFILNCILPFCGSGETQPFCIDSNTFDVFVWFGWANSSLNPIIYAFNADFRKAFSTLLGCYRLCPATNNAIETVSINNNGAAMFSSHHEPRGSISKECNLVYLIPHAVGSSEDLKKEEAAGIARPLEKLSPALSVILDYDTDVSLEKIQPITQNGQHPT
As to the kind of experiment: Competition radioligand binding at human D1 receptor ([3H]-SCH-23390). As to conditions: mean ± SEM of 2 independent experiments, read-out: huD1 % inh. at 10 µM. As for the experimental part: as §1, §2

Test [2] addresses T3, human D2S receptor (Homo sapiens, UniProt P14416).
T3 construct: expressed in transfected cells; host or cells: CHO-K1
Description: Competition radioligand binding at human D2 receptor ([3H]-Spiperone, CHO-K1 membranes). Conditions: mean ± SEM of 2–3 independent experiments in duplicate; read-out: huD2 Ki.

Test [3] deals with T4, human dopamine D3 receptor (Homo sapiens, UniProt P35462).
T4 construct: expressed in transfected cells; host or cells: CHO-K1
T4 sequence (P35462 whole entry): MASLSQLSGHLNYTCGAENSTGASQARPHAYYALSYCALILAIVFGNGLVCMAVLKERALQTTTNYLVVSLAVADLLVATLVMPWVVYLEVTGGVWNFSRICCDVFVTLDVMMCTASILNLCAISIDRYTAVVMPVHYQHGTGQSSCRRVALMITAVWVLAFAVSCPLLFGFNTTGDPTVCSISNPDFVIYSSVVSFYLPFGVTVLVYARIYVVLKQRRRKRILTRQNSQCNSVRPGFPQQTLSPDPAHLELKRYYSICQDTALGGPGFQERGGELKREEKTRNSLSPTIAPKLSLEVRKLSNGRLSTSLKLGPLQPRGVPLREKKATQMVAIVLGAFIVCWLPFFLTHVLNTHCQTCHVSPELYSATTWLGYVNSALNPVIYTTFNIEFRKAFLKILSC
Description: Competition radioligand binding at human D3 receptor ([3H]-Spiperone). As to conditions: mean ± SEM of 2 independent experiments, read-out: huD3 % inh. at 10 µM. As for the experimental part: as §1, §2

For test [4], the target named is T3, human D2S receptor. As to the kind of experiment: Functional assays of cAMP signalling at D2 receptors (CHO-K1 cells, HTRF). The test is classed as cell-based. The procedure:
The assessment of the activity of selected compounds at the D2 receptor was performed in cell-based functional assays of cAMP signaling, in the CHO-K1 cell line with stable expression of the cloned human D2S receptor, which was also employed for the radioligand binding assays. For D2 receptor antagonism, test compounds were dispensed into an empty 96-well plate (Isoplate-96 Black Frame White Well, PerkinElmer España SL, Madrid, Spain) with the use of the dispensing noncontact Echo 550 acoustic liquid handler (LABCYTE Inc., San Jose, CA, USA). Compounds were handled from frozen 10^−2 M stock solutions in 100% DMSO, from which serial 1000× solutions were prepared in 100% DMSO at the time of the assay, keeping vehicle concentration (0.1% DMSO) constant in the assay. Vials containing viable frozen cells were quickly thawed in a 37 °C water bath and cells were seeded into the assay plate in assay buffer (kit stimulation buffer containing 500 µM 3-isobutyl-1-methylxanthine (IBMX), which was directly added to the buffer as powder). […] After 10 min incubation at 37 °C, 10 µM forskolin was added to the corresponding wells, and incubation was continued for 5 min. After this time, cellular cAMP levels were quantified using the homogeneous time-resolved fluorescence (HTRF)-based cAMP Gs dynamic kit (Cisbio, Bioassays, Codolet, France) according to the manufacturer’s protocol. […] Basal cAMP levels were determined in control wells in the absence of compound, agonist, and forskolin.
(In general: TR-FRET usually uses a lanthanide donor and a delayed reading to cut background.)

What is called Ki is the dissociation constant of the complex between target and ligand, obtained from inhibition or displacement.

T3 sequence (P14416 1-414 isoform P14416-2): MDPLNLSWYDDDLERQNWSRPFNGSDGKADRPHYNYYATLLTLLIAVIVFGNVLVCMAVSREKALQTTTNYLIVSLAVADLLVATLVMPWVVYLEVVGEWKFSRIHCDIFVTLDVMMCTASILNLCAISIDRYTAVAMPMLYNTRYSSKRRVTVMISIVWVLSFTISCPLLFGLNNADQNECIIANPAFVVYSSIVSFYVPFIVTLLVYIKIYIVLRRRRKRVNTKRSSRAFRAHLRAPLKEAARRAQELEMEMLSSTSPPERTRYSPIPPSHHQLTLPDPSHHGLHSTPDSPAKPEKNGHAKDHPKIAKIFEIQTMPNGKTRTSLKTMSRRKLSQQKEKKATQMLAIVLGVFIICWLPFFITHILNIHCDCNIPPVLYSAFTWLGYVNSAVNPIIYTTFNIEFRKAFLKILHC
T1 sequence (P34969 whole entry): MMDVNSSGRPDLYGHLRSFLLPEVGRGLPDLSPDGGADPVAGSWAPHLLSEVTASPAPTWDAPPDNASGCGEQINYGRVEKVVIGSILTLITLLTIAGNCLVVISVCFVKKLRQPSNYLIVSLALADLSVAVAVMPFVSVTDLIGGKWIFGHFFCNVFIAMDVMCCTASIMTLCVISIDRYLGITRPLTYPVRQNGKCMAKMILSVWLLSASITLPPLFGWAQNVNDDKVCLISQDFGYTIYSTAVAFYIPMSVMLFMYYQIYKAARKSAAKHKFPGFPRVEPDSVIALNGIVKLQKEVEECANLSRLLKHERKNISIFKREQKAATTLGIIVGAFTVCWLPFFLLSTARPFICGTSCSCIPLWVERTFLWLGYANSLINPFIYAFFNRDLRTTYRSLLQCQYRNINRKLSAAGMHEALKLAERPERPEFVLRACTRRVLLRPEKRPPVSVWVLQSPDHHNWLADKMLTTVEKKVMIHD

`O=C(CCN1C(=O)CSc2ccccc21)Nc1ccc(Cl)cc1` [Compound 17, N-(4-Chlorophenyl)-3-(3-oxo-2,3-dihydro-4H-benzo[b][1,4]thiazin-4-yl)propanamide]: the inhibition at 10 µM was determined as 5 ± 11% on human 5-HT7 receptor, 21 ± 2% in test [1] and 6 ± 3% in test [3]. The inhibition constant (Ki) on human D2S receptor [2] is 381 ± 48 nM. Further, on human D2S receptor [4] (antagonism of 1 µM dopamine response, forskolin-stimulated cAMP, three independent experiments, read-out: D2 Signalling (cAMP) pKb (Mean ± SEM) (converted)), the Kb was 26.9 nM. Besides, on human D2S receptor [4] (cAMP signaling, CHO-K1 cells), the “efficacy at D2 receptor (mode of action)” value was “antagonism”.

These data come from article PMC10223470 (Molecules, 2023).
